One data set concerns Micrococcus luteus. Briefly: Antimicrobial activity against Micrococcus luteus DSM 348 after 18 hrs by twofold serial dilution method. Type of data set: functional.
The subject of another data set is Candida albicans. Briefly: Antimicrobial activity against Candida albicans DSM 1665 after 18 hrs by twofold serial dilution method. Type of data set: functional.
The subject of another data set is Escherichia coli. Briefly: Antimicrobial activity against Escherichia coli DSM 1103 after 18 hrs by twofold serial dilution method. Type of data set: functional, organism-based.
A further data set deals with Pseudomonas aeruginosa. The data set is described as follows: Antimicrobial activity against Pseudomonas aeruginosa DSM 1117 after 18 hrs by twofold serial dilution method. Type of data set: functional, organism-based.
In the next data set the test system is Artemia salina. The data set is described as follows: Toxicity against Artemia salina after 24 hrs. To be noted: in vivo.
The next data set deals with Gambusia affinis. The data set is described as follows: Toxicity against Gambusia affinis. The note with it: in vivo.
For another data set, the system named is Bacillus subtilis. Briefly: Antimicrobial activity against Bacillus subtilis DSM 347 after 18 hrs by twofold serial dilution method. Type of data set: functional.

Values after ≈ are worked out from the molar mass of the structure shown. Active and inactive are the calls of the source. Some results are limits rather than exact numbers.

For orientation: MIC means the smallest concentration in the dilution series that meets the test's criterion for growth inhibition. As usually defined, the LC50 is the concentration lethal to half of the exposed cells or organisms. For the compound `CC(C)CCCC(C)CCCC(C)CCc1cc(O)ccc1O` (configuration not stated), the MIC was over 50 mg/L against Micrococcus luteus (DSM 348, 18 h) and over 50 mg/L with Bacillus subtilis (DSM 347, 18 h). The MIC result in the data set with Candida albicans was “inactive”. Also, the result with Escherichia coli and in the data set on Pseudomonas aeruginosa was inactive. In addition, the LC50 in the data set on Artemia salina is on record as 0.02 ppm; in the data set with Gambusia affinis it was 21.3 ppm.

As to `CC(C)=CCC/C(C)=C/CC/C(C)=C/CC/C(C)=C/CC/C(C)=C/CC/C(C)=C/Cc1cc(O)ccc1O`, the MIC entry with Micrococcus luteus, in the data set on Candida albicans and in the data set with Bacillus subtilis was “inactive” throughout. Further, the result with Escherichia coli and in the data set on Pseudomonas aeruginosa was inactive. For the same compound, the LC50 was 0.63 ppm in the data set with Artemia salina and over 100 ppm with Gambusia affinis.

For `CC(C)CCCC(C)CCCC(C)CCCC(C)CCCC(C)CCCC(C)CCc1cc(O)ccc1O` (configuration not stated), the MIC entry in the data set with Micrococcus luteus, in the data set on Candida albicans and in the data set with Bacillus subtilis was “inactive” each time. In addition, the result in the data set on Escherichia coli and with Pseudomonas aeruginosa was inactive. Besides, the LC50 is over 10 ppm in the data set on Artemia salina and over 100 ppm with Gambusia affinis.

Regarding `CC(C)=CCC/C(C)=C/CC/C(C)=C/CC/C(C)=C/CC/C(C)=C/CC/C(C)=C/CC1=CC(=O)C=CC1=O`, the MIC entry with Micrococcus luteus, with Candida albicans and in the data set with Bacillus subtilis was “inactive” in each case. Besides, the result with Escherichia coli and in the data set with Pseudomonas aeruginosa was inactive.

With GENTAMICIN, the MIC in the data set with Micrococcus luteus amounted to 1.56 mg/L; in the data set with Bacillus subtilis it was 0.78 mg/L. Also, the result in the data set on Escherichia coli and in the data set on Pseudomonas aeruginosa was inactive.

Consider `CC(C)=CCC/C(C)=C/CC/C(C)=C/Cc1cc(O)ccc1O`, for which the MIC against Micrococcus luteus (DSM 348, 18 h) was determined as 12.5 mg/L (≈ 39.7 µM); against Bacillus subtilis (DSM 347, 18 h), 1.56 mg/L (≈ 4.96 µM). For the same compound, in the data set with Candida albicans, the MIC entry was “inactive”. The result in the data set on Escherichia coli and with Pseudomonas aeruginosa was inactive. The LC50 came out at 0.05 ppm in the data set on Artemia salina and 3.3 ppm in the data set with Gambusia affinis.

As for `CC(C)CCCC(C)CCc1cc(O)ccc1O` (configuration not stated), the MIC came out at 6.25 mg/L (≈ 25 µM) against Micrococcus luteus (DSM 348, 18 h) and 6.25 mg/L (≈ 25 µM) with Bacillus subtilis (DSM 347, 18 h). In the data set with Candida albicans, the MIC entry is “inactive”. The outcome with Escherichia coli and in the data set on Pseudomonas aeruginosa was inactive. Also, the LC50 amounted to 0.001 ppm in the data set with Artemia salina and 0.15 ppm in the data set with Gambusia affinis.

With `CC(C)=CCC/C(C)=C/CC/C(C)=C/CC/C(C)=C/CC/C(C)=C/CC/C(C)=C/CC/C(C)=C/CC1=CC(=O)C=CC1=O`, the MIC result with Micrococcus luteus, in the data set on Candida albicans and in the data set with Bacillus subtilis was “inactive” throughout. For the same compound, the result in the data set on Escherichia coli and with Pseudomonas aeruginosa was inactive. Moreover, the LC50 is 1.26 ppm in the data set on Artemia salina and over 100 ppm in the data set on Gambusia affinis.

As for `Oc1ccc(O)cc1` [HYDROQUINONE], the MIC in the data set with Micrococcus luteus (DSM 348, 18 h) was over 50 mg/L; against Bacillus subtilis (DSM 347, 18 h), over 50 mg/L. Moreover, the MIC entry with Candida albicans is “inactive”. The result with Escherichia coli and with Pseudomonas aeruginosa was inactive. The LC50 is 0.35 ppm in the data set on Artemia salina and 21.5 ppm in the data set on Gambusia affinis.

In the case of `CC(C)CCCC(C)CCCC(C)CCCC(C)CCCC(C)CCCC(C)CCCC(C)CCc1cc(O)ccc1O` (configuration not stated), the MIC entry in the data set on Micrococcus luteus, with Candida albicans and with Bacillus subtilis was “inactive” in each case. Besides, the outcome in the data set with Escherichia coli and with Pseudomonas aeruginosa was inactive. For the same compound, the LC50 is over 10 ppm with Artemia salina and over 100 ppm in the data set on Gambusia affinis.

As to `CC(C)=CCC/C(C)=C/CC1=CC(=O)C=CC1=O`, the MIC is 12.5 mg/L (≈ 51.2 µM) in the data set on Micrococcus luteus (DSM 348, 18 h); 25 mg/L (≈ 102 µM) against Candida albicans (DSM 1665, 18 h); 12.5 mg/L (≈ 51.2 µM) in the data set on Bacillus subtilis (DSM 347, 18 h). The result with Escherichia coli and in the data set on Pseudomonas aeruginosa was inactive. Moreover, the figures for the LC50 in the data set on Artemia salina and in the data set on Gambusia affinis were 0.05 ppm and 0.2 ppm, respectively.

As for `CC(C)CCc1cc(O)ccc1O`, the MIC with Micrococcus luteus (DSM 348, 18 h) was 6.25 mg/L (≈ 34.7 µM); against Candida albicans (DSM 1665, 18 h) it was over 50 mg/L; against Bacillus subtilis (DSM 347, 18 h) it was 12.5 mg/L (≈ 69.3 µM). Further, the outcome with Escherichia coli and in the data set with Pseudomonas aeruginosa was inactive. For the same compound, the LC50 was determined as 0.29 ppm with Artemia salina and 3.3 ppm with Gambusia affinis.

`Cc1cc(O)ccc1O` [METHYLHYDROQUINONE]: the MIC against Micrococcus luteus (DSM 348, 18 h) was over 50 mg/L; in the data set with Candida albicans (DSM 1665, 18 h), over 50 mg/L; in the data set with Bacillus subtilis (DSM 347, 18 h), 25 mg/L (≈ 201 µM). Also, the outcome in the data set with Escherichia coli and in the data set on Pseudomonas aeruginosa was inactive. The LC50 in the data set on Artemia salina is given as over 10 ppm; in the data set on Gambusia affinis, 38.5 ppm.

Turning to `CC(C)CCCC(C)CCCC(C)CCCC(C)CCc1cc(O)ccc1O` (configuration not stated), the MIC entry with Micrococcus luteus, in the data set with Candida albicans and with Bacillus subtilis was “inactive” throughout. Also, the outcome in the data set on Escherichia coli and in the data set on Pseudomonas aeruginosa was inactive. For the same compound, the LC50 turned out to be 0.02 ppm in the data set on Artemia salina and 43.6 ppm in the data set on Gambusia affinis.

For the compound `O=C1C=CC(=O)C=C1` [BENZOQUINONE], the minimal inhibitory concentration (MIC) was over 50 mg/L against Micrococcus luteus (DSM 348, 18 h); 25 mg/L (≈ 231 µM) against Candida albicans (DSM 1665, 18 h); over 50 mg/L against Bacillus subtilis (DSM 347, 18 h). Further, the result with Escherichia coli and in the data set on Pseudomonas aeruginosa was inactive.

Regarding `CC(C)=CCC/C(C)=C/Cc1cc(O)ccc1O` [GEROQUINOL], the MIC amounted to 12.5 mg/L (≈ 50.7 µM) in the data set with Micrococcus luteus (DSM 348, 18 h); 25 mg/L (≈ 101 µM) with Candida albicans (DSM 1665, 18 h); 6.25 mg/L (≈ 25.4 µM) in the data set on Bacillus subtilis (DSM 347, 18 h). Moreover, the result with Escherichia coli and in the data set on Pseudomonas aeruginosa was inactive. The LC50 in the data set with Artemia salina is 0.01 ppm; with Gambusia affinis it was 4.6 ppm.

Take `CC(C)=CCC1=CC(=O)C=CC1=O`: the minimum inhibitory concentration (MIC) in the data set with Micrococcus luteus (DSM 348, 18 h) was 25 mg/L (≈ 142 µM); in the data set on Candida albicans (DSM 1665, 18 h), over 50 mg/L; against Bacillus subtilis (DSM 347, 18 h), 25 mg/L (≈ 142 µM). Besides, the result in the data set on Escherichia coli and in the data set with Pseudomonas aeruginosa was inactive. Further, the LC50 in the data set on Artemia salina stood at 0.19 ppm; with Gambusia affinis, 1.4 ppm.

On to `CC(C)=CCc1cc(O)ccc1O` [PRENYLHYDROQUINONE], for which the MIC against Micrococcus luteus (DSM 348, 18 h) was 25 mg/L (≈ 140 µM); in the data set on Candida albicans (DSM 1665, 18 h), over 50 mg/L; against Bacillus subtilis (DSM 347, 18 h), over 50 mg/L. Besides, the result with Escherichia coli and in the data set with Pseudomonas aeruginosa was inactive. For the same compound, the values for the LC50 in the data set with Artemia salina and in the data set with Gambusia affinis were 0.54 ppm and 22.2 ppm, respectively.

For `CC(C)CCCC(C)CCCC(C)CCCC(C)CCCC(C)CCCC(C)CCCC(C)CCCC(C)CCc1cc(O)ccc1O` (configuration not stated), the MIC result with Micrococcus luteus, in the data set with Candida albicans and with Bacillus subtilis was “inactive” each time. For the same compound, the outcome in the data set with Escherichia coli and with Pseudomonas aeruginosa was inactive. In addition, the LC50 was over 10 ppm with Artemia salina and over 100 ppm in the data set on Gambusia affinis.

On to `C=C(C)[C@H]1Cc2c(ccc3c2O[C@@H]2COc4cc(OC)c(OC)cc4[C@@H]2C3=O)O1` [ROTENONE], for which the result in the data set on Escherichia coli and in the data set on Pseudomonas aeruginosa was inactive. In addition, the LC50 in the data set on Gambusia affinis was 0.03 ppm.

Consider `CC1=CCC[C@H]2[C@](C)(Cc3cc(O)ccc3O)[C@@H](C)CC[C@]12C` [AVAROL], for which the MIC is over 50 mg/L against Micrococcus luteus (DSM 348, 18 h) and over 50 mg/L with Bacillus subtilis (DSM 347, 18 h). Besides, the MIC entry in the data set on Candida albicans was “inactive”. For the same compound, the result in the data set with Escherichia coli and in the data set on Pseudomonas aeruginosa was inactive. For the same compound, the LC50 with Artemia salina is on record as 0.18 ppm; in the data set on Gambusia affinis, 4.6 ppm.

For `CC(C)=CCC/C(C)=C/CC/C(C)=C/CC/C(C)=C/CC/C(C)=C/CC/C(C)=C/CC/C(C)=C/Cc1cc(O)ccc1O`, the MIC entry with Micrococcus luteus, in the data set on Candida albicans and in the data set on Bacillus subtilis was “inactive” each time. In addition, the outcome with Escherichia coli and in the data set on Pseudomonas aeruginosa was inactive. Further, the 50% lethal concentration (LC50) in the data set on Artemia salina was 0.91 ppm; in the data set with Gambusia affinis, over 100 ppm.

As for `CC(C)=CCC/C(C)=C/CC/C(C)=C/CC/C(C)=C/CC/C(C)=C/CC/C(C)=C/CC/C(C)=C/CC/C(C)=C/CC1=CC(=O)C=CC1=O`, the MIC entry in the data set on Micrococcus luteus, in the data set with Candida albicans and in the data set with Bacillus subtilis was “inactive” throughout. Further, the outcome in the data set on Escherichia coli and in the data set with Pseudomonas aeruginosa was inactive. Further, the LC50 with Artemia salina was 1.45 ppm; with Gambusia affinis, over 100 ppm.

As to `CC1=CC(=O)C=CC1=O` [Cresoquinone], the minimum inhibitory concentration (MIC) in the data set with Micrococcus luteus (DSM 348, 18 h) is over 50 mg/L; in the data set on Candida albicans (DSM 1665, 18 h), over 50 mg/L; against Bacillus subtilis (DSM 347, 18 h), 25 mg/L (≈ 205 µM). The outcome with Escherichia coli and with Pseudomonas aeruginosa was inactive. Moreover, the figures for the LC50 in the data set on Artemia salina and in the data set on Gambusia affinis were 1.06 ppm and 5.4 ppm, respectively.

Consider `Clc1ccc(COC(Cn2ccnc2)c2ccc(Cl)cc2Cl)c(Cl)c1` (configuration not stated) [MICONAZOLE], for which, in the data set with Candida albicans (DSM 1665, 18 h), it took 1.56 mg/L (≈ 3.75 µM) to inhibit growth (MIC). Also, the outcome in the data set with Escherichia coli and with Pseudomonas aeruginosa was inactive.

Consider `CC(C)=CCC/C(C)=C/CC/C(C)=C/CC/C(C)=C/CC/C(C)=C/CC/C(C)=C/CC/C(C)=C/CC/C(C)=C/Cc1cc(O)ccc1O`, for which the MIC result in the data set with Micrococcus luteus, with Candida albicans and in the data set with Bacillus subtilis was “inactive” throughout. Also, the outcome in the data set with Escherichia coli and with Pseudomonas aeruginosa was inactive. In addition, the results for the LC50 with Artemia salina and in the data set with Gambusia affinis were 0.98 ppm and over 100 ppm, respectively.

The values are drawn from ChEMBL document CHEMBL1148093, “Biological effects of prenylated hydroquinones: structure-activity relationship studies in antimicrobial, brine shrimp, and fish lethality assays” (J Nat Prod, 1994).
